# Reference: patent publication US20260262643A1, “HERBICIDAL BENZOXAZINES” (FMC CORPORATION, priority 2022, published 2026)
# Experiments:
# [1] = tested on: barnyardgrass; experiment: Test C preemergence; type: in vivo, Echinochloa crusgalli
# Procedure, shortened: (§1)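 Seeds in loam–sand blend received preemergence directed soil spray of test chemicals in non-phytotoxic solvent with surfactant; postemergence treatment was applied at one- to two-leaf stage (2–10 cm). After 10 days in greenhouse, injury rated visually versus untreated controls, 0 (no effect) to 100 (complete control).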
# [2] = tested on: blackgrass; experiment: Test C preemergence; type: in vivo, Alopecurus myosuroides
# Procedure, shortened: as §1
# [3] = tested on: corn; experiment: Test C preemergence; type: in vivo, Zea mays
# Procedure, shortened: as §1
# [4] = tested on: foxtail, giant; experiment: Test C preemergence; type: in vivo, Setaria faberi
# Procedure, shortened: as §1
# [5] = tested on: kochia; experiment: Test C preemergence; type: in vivo, Bassia scoparia
# Procedure, shortened: as §1
# [6] = tested on: oat, wild; experiment: Test C preemergence; type: in vivo, Avena fatua
# Procedure, shortened: as §1
# [7] = tested on: pigweed, palmer; experiment: Test C preemergence; type: in vivo, Amaranthus palmeri
# Procedure, shortened: as §1
# [8] = tested on: ragweed; experiment: Test C preemergence; type: in vivo, Ambrosia artemisiifolia
# Procedure, shortened: as §1
# [9] = tested on: ryegrass, Italian; experiment: Test C preemergence; type: in vivo, Lolium multiflorum
# Procedure, shortened: as §1
# [10] = tested on: soybean; experiment: Test C preemergence; type: in vivo, Glycine max
# Procedure, shortened: as §1
# [11] = tested on: wheat; experiment: Test C preemergence; type: in vivo, Triticum aestivum
# Procedure, shortened: as §1
# [12] = tested on: barnyardgrass; experiment: Test C postemergence; type: in vivo, Echinochloa crusgalli; details: 10 days, 0 to 100 scale (0 no effect, 100 complete control)
# Procedure, shortened: as §1
# [13] = tested on: blackgrass; experiment: Test C postemergence; type: in vivo, Alopecurus myosuroides; details: 10 days, 0 to 100 scale (0 no effect, 100 complete control)
# Procedure, shortened: as §1
# [14] = tested on: corn; experiment: Test C postemergence; type: in vivo, Zea mays; details: 10 days, 0 to 100 scale (0 no effect, 100 complete control)
# Procedure, shortened: as §1
# [15] = tested on: foxtail, giant; experiment: Test C postemergence; type: in vivo, Setaria faberi; details: 10 days, 0 to 100 scale (0 no effect, 100 complete control)
# Procedure, shortened: as §1
# [16] = tested on: kochia; experiment: Test C postemergence; type: in vivo, Bassia scoparia; details: 10 days, 0 to 100 scale (0 no effect, 100 complete control)
# Procedure, shortened: as §1
# [17] = tested on: oat, wild; experiment: Test C postemergence; type: in vivo, Avena fatua; details: 10 days, 0 to 100 scale (0 no effect, 100 complete control)
# Procedure, shortened: as §1
# [18] = tested on: pigweed, palmer; experiment: Test C postemergence; type: in vivo, Amaranthus palmeri; details: 10 days, 0 to 100 scale (0 no effect, 100 complete control)
# Procedure, shortened: as §1
# [19] = tested on: ragweed; experiment: Test C postemergence; type: in vivo, Ambrosia artemisiifolia; details: 10 days, 0 to 100 scale (0 no effect, 100 complete control)
# Procedure, shortened: as §1
# [20] = tested on: ryegrass, Italian; experiment: Test C postemergence; type: in vivo, Lolium multiflorum; details: 10 days, 0 to 100 scale (0 no effect, 100 complete control)
# Procedure, shortened: as §1
# [21] = tested on: soybean; experiment: Test C postemergence; type: in vivo, Glycine max; details: 10 days, 0 to 100 scale (0 no effect, 100 complete control)
# Procedure, shortened: as §1
# [22] = tested on: wheat; experiment: Test C postemergence; type: in vivo, Triticum aestivum; details: 10 days, 0 to 100 scale (0 no effect, 100 complete control)
# Procedure, shortened: as §1
# [23] = tested on: galium; experiment: Test C postemergence; type: in vivo, Galium aparine; details: 10 days, 0 to 100 scale (0 no effect, 100 complete control)
# Procedure, shortened: as §1
# [24] = tested on: horseweed; experiment: Test C postemergence; type: in vivo, Erigeron canadensis; details: 10 days, 0 to 100 scale (0 no effect, 100 complete control)
# Procedure, shortened: as §1
# [25] = tested on: barnyardgrass; experiment: Test D flooded paddy test; type: in vivo, Echinochloa crus-galli; details: 250 g ai/ha, applied to paddy water, visual rating after 13 to 14 days, scale 0 to 100 (0 no effect, 100 complete control)
# Procedure, shortened: (§2)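 Post-flood water application at the 2-leaf stage; 3 cm flood depth kept constant; visual control rating 0–100 after 13–14 days greenhouse growth.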
# [26] = tested on: ducksalad; experiment: Test D flooded paddy test; type: in vivo, Heteranthera limosa; details: 250 g ai/ha, applied to paddy water, visual rating after 13 to 14 days, scale 0 to 100 (0 no effect, 100 complete control)
# Procedure, shortened: as §2
# [27] = tested on: rice; experiment: Test D flooded paddy test; type: in vivo, Oryza sativa; details: 250 g ai/ha, applied to paddy water, visual rating after 13 to 14 days, scale 0 to 100 (0 no effect, 100 complete control)
# Procedure, shortened: as §2
# [28] = tested on: sedge, umbrella; experiment: Test D flooded paddy test; type: in vivo, Cyperus difformis; details: 250 g ai/ha, applied to paddy water, visual rating after 13 to 14 days, scale 0 to 100 (0 no effect, 100 complete control)
# Procedure, shortened: as §2
# [29] = 500 g ai/ha, preemergence, 0 to 100 scale (0 no effect, 100 complete control)
# [30] = Preemergence, 125 g ai/ha, 0 to 100 scale, 0 no effect, 100 complete control
structure (smiles),measurement,setting,value
CCc1cc(C(=O)N2C[C@H](C)Oc3c(Cl)cccc32)cc(-n2cncn2)c1 [Compound 332],Barnyardgrass plant response rating,[1]; [29],90
same,"Plant response rating, Barnyardgrass",[1]; [30],50
same,Blackgrass plant response rating,[2]; [29],80
same,"Plant response rating, Blackgrass",[2]; [30],80
same,Corn plant response rating,[3]; [29],20
same,"Plant response rating, Corn",[3]; [30],20
same,"Foxtail, Giant plant response rating",[4]; [29],100
same,"Plant response rating, Foxtail, Giant",[4]; [30],70
same,Kochia plant response rating,[5]; [29],50
same,"Plant response rating, Kochia",[5]; [30],0
same,"Oat, Wild plant response rating",[6]; [29],30
same,"Plant response rating, Oat, Wild",[6]; [30],30
same,"Pigweed, Palmer plant response rating",[7]; [29],100
same,"Plant response rating, Pigweed, Palmer",[7]; [30],20
same,Ragweed plant response rating,[8]; [29],0
same,"Plant response rating, Ragweed",[8]; [30],0
same,"Ryegrass, Italian plant response rating",[9]; [29],90
same,"Plant response rating, Ryegrass, Italian",[9]; [30],60
same,Soybean plant response rating,[10]; [29],0
same,"Plant response rating, Soybean",[10]; [30],0
same,Wheat plant response rating,[11]; [29],0
same,"Plant response rating, Wheat",[11]; [30],0
same,"Plant response rating, Barnyardgrass","[12]; 500 g ai/ha, postemergence",70
same,"Plant response rating, Barnyardgrass","[12]; Postemergence, 125 g ai/ha",40
same,"Plant response rating, Blackgrass","[13]; 500 g ai/ha, postemergence",70
same,"Plant response rating, Blackgrass","[13]; Postemergence, 125 g ai/ha",30
same,"Plant response rating, Corn","[14]; 500 g ai/ha, postemergence",30
same,"Plant response rating, Corn","[14]; Postemergence, 125 g ai/ha",30
same,"Plant response rating, Foxtail, Giant","[15]; 500 g ai/ha, postemergence",90
same,"Plant response rating, Foxtail, Giant","[15]; Postemergence, 125 g ai/ha",40
same,"Plant response rating, Kochia","[16]; 500 g ai/ha, postemergence",60
same,"Plant response rating, Kochia","[16]; Postemergence, 125 g ai/ha",10
same,"Plant response rating, Oat, Wild","[17]; 500 g ai/ha, postemergence",30
same,"Plant response rating, Oat, Wild","[17]; Postemergence, 125 g ai/ha",10
same,"Plant response rating, Pigweed, Palmer","[18]; 500 g ai/ha, postemergence",70
same,"Plant response rating, Pigweed, Palmer","[18]; Postemergence, 125 g ai/ha",70
same,"Plant response rating, Ragweed","[19]; 500 g ai/ha, postemergence",20
same,"Plant response rating, Ragweed","[19]; Postemergence, 125 g ai/ha",0
same,"Plant response rating, Ryegrass, Italian","[20]; 500 g ai/ha, postemergence",70
same,"Plant response rating, Ryegrass, Italian","[20]; Postemergence, 125 g ai/ha",60
same,"Plant response rating, Soybean","[21]; 500 g ai/ha, postemergence",100
same,"Plant response rating, Soybean","[21]; Postemergence, 125 g ai/ha",90
same,"Plant response rating, Wheat","[22]; 500 g ai/ha, postemergence",20
same,"Plant response rating, Wheat","[22]; Postemergence, 125 g ai/ha",20
same,"Plant response rating, Galium","[23]; 500 g ai/ha, postemergence",100
same,"Plant response rating, Galium","[23]; Postemergence, 125 g ai/ha",70
same,"Plant response rating, Horseweed","[24]; 500 g ai/ha, postemergence",0
same,"Plant response rating, Horseweed","[24]; Postemergence, 125 g ai/ha",0
same,"Plant response rating, Barnyardgrass (Flood)",[25],0
same,"Plant response rating, Ducksalad (Flood)",[26],0
same,"Plant response rating, Rice (Flood)",[27],0
same,"Plant response rating, Sedge, Umbrella (Flood)",[28],0
